From patent publication US12091696B2, “O-methyltransferase protein with highly specific catalytic function for multiple bias parent nuclei and encoding gene and use thereof” (INSTITUTE OF CHINESE MATERIA MEDICA CHINA ACADEMY OF …, priority 2023, dated 2024) come the findings set out here.

One assay deals with wild-type O-methyltransferase. Description: In vitro enzymatic activity of wild-type O-methyltransferase (comparison with mutant). In kind it is biochemical, Nelumbo nucifera. The settings on record: same method as Example 1. The method, then: (§1) An in vitro enzymatic activity reaction was conducted at a pH value of 8.0 and 37° C. for 12 h in a 100 μL system containing 50 mM of a potassium phosphate buffer, 100 μM of a substrate, 200 μM of a SAM donor, and 50 μg of the purified protein. 100 μL of methanol was added to terminate the above reaction, the protein was centrifuged at 12,000×g for 30 min in a centrifuge, and a resulting supernatant was passed through a 0.22 μm microporous membrane and injected into UPLC-QTOF-MS/MS for detection. A sample prepared in a same way with boiled purified protein was served as a negative control.
A specific experimental method was the same as that in Example 1.
On to `COc1cc2c(cc1O)[C@@H]1Cc3ccc(OC)c(OC)c3CN1CC2` [Compound 14, tetrahydrocolumbamine], for which the “catalytic activity of wild-type O-methyltransferase on substrate, in words” value is “no catalytic activity”.

The subject of the next assay is NnOMT6N323A. Nature of the assay: In vitro enzymatic activity test of NnOMT6N323A (O-methylation of benzylisoquinoline substrates, UPLC-QTOF-MS/MS). To be noted: mutant versus wild-type, FIG. 4. In kind it is biochemical, Nelumbo nucifera. The method, then: as §1
The NnOMT6N323A was studied for substrate promiscuity with 15 benzylisoquinoline compounds (norcoclaurine (1), coclaurine (2), N-methylcoclaurine (3), norarmepavine (4), armepavine (5), lotusine (6), asimilobine (7), N-methlyasimilobine (8), lirinidine (9), liensinine (10), isoliensinine (11), neferine (12), scoulerine (13), tetrahydrocolumbamine (14), and jatrorrhizine (15)).
The chromatographic conditions were as follows: a chromatographic column was an ACQUITY UPLC CSH C18 column (2.1 mm×50 mm, 1.7 μm). A mobile phase A was 0.1% formic acid water, and a mobile phase B was acetonitrile; gradient elution was conducted, including: 0-0.5 min, 2% B; 0.5-1 min, 2%-5% B; 1-5 min, 5%-9% B; […], 9%-10% B; […], 10%-15% B; 16-20 min, 15%-45% B; 20-22 min, 45% B-100% B. A sample injection volume was 2 μL, a column temperature was 35° C., and a flow rate was 0.3 mL/min.
The mass spectrometry conditions were as follows: an ion source was a Dusal ESI source; the substrate was detected in a positive ion (PI) mode with a scan range of m/z 100-1000. […] MS/MS analysis was conducted with a collision energy of 30 eV and a collision energy voltage of 20 V.
Regarding `COc1cc2c(cc1O)C(Cc1ccc(O)cc1)NCC2` (stereo not drawn) [Compound 2, coclaurine], the “enhancement of catalytic activity of mutant NnOMT6N323A compared with wild-type O-methyltransferase” value was “about two times”.

The same assay, now with this note: pH 8.0, 37° C., 12 h; 100 μM substrate, 200 μM SAM, 50 μg purified protein.
Regarding `Oc1ccc(CC2NCCc3cc(O)c(O)cc32)cc1` (stereo not drawn) [Compound 1, norcoclaurine], the “catalytic (O-methylation) activity of NnOMT6N323A on substrate, in words” value (“catalytic (O-methylation) activity” below) is reported as “could catalyze the O-methylation” and the “conversion rate (O-methylation of substrate by NnOMT6N323A)” value (shortened to “conversion rate”) is 63.7%. Regarding `COc1cc2c(cc1O)C(Cc1ccc(O)cc1)NCC2` (stereo not drawn) [Compound 2, coclaurine], the “catalytic (O-methylation) activity” value is listed as “could catalyze the O-methylation” and the “conversion rate” value is 34.8%.

As for `COc1cc2c(cc1O)[C@@H](Cc1ccc(O)cc1)N(C)CC2` [Compound 3, N-methylcoclaurine], the “catalytic (O-methylation) activity” value is “could catalyze the O-methylation” and the “conversion rate” value is 47.6%. In the case of `COc1cc2c(cc1O)[C@@H]1Cc3ccc(OC)c(O)c3CN1CC2` [Compound 13, scoulerine], the “catalytic (O-methylation) activity” value is listed as “could catalyze the O-methylation”. Same read-out and setting: the value for `COc1cc2c(cc1OC)[C@@H]1Cc3ccc(OC)c(O)c3CN1CC2` [Compound 13a, tetrahydropalmatrubine] was “further catalyzed”. Take `COc1cc2c(cc1O)[C@@H]1Cc3ccc(OC)c(OC)c3CN1CC2` [Compound 14, tetrahydrocolumbamine]: the “catalytic (O-methylation) activity” value is “could catalyze the O-methylation” and the “conversion rate” value was “about 42.3%”. In the case of `COc1cc2c(cc1O)CC[n+]1cc3c(OC)c(OC)ccc3cc1-2` [Compound 15, jatrorrhizine], the “catalytic (O-methylation) activity” value is listed as “no activity”. N-methlyasimilobine [Compound 8]: the “catalytic (O-methylation) activity” value is on record as “could catalyze the O-methylation” and the “conversion rate” value was 55.4%. The corresponding values for asimilobine [Compound 7] are “could catalyze the O-methylation” and 60.8%. lirinidine [Compound 9]: the “catalytic (O-methylation) activity” value was “no catalytic activity”.
